Experimental data: patent publication US10865397B2, “Recombinant polynucleotide sequence for producing astaxanthin and uses thereof” (ACADEMIA SINICA, priority 2014, dated 2020)

Tests used:
[1] = 3′S, 3′S compared with the 3′R3′R, 3′R stereoisomer; cited from earlier work
Cz30 strain [2] = tested on: Cz30 strain
Description: (§3) After 24 hours, the cells were inoculated into the YPG plate with a series dilution and cultivated for another 48 hours.

Cz30 strain [3] = test: Stress tolerance test: pretreated cells, series dilution on YPG plate
From the text: (§1) For the biorefinery application, plant biomass is one of the most abundant renewable resources on earth and is considered an essential building block for developing a sustainable society. Renewable biological resources from plant can be converted into bioproducts, such as biofuels, biochemicals, biolubricants, and biodegradable materials. To utilize the sugars contained in plant biomass, many available treatment techniques, including acid hydrolysis, steam explosion, ammonia fiber expansion, organosolv, sulfite pretreatment, alkaline wet oxidation, ozone pretreatment, and enzyme treatment, are employed for lignocellulose destruction. Toxins produced during acid and steam pretreatment of lignocellulose cover a large range of substances, such as furfural and hydroxymethylfurfural from hemicellulose and cellulose, alcohols and aldehydes from lignin, and heavy metals from bioreactor. Accordingly, the second stress factor examined was furfural treatment.
(§2) WT and Cz30 strains were further tested for ethanol and butanol treatments.

WT strain [4] = conditions: 2, 4, or 6% ethanol in YPG medium, 24 hours
Description: as §3

WT strain [5] = test: Stress tolerance test: pretreated cells, series dilution on YPG plate; conditions: colonies on plate (FIG. 27B)
From the text: as §1, §2

Question: For `CC1=C(/C=C/C(C)=C/C=C/C(C)=C/C=C/C=C(C)/C=C/C=C(C)/C=C/C2=C(C)C(=O)[C@@H](O)CC2(C)C)C(C)(C)C[C@H](O)C1=O` (single isomer, unassigned; stereoisomer 3) [3′S, 3′S stereoisomer, 3′S, 3′S-astaxanthin], which “antioxidant activity of astaxanthin stereoisomers” value [1] is on record?
Answer: Its value is “higher antioxidant activity”.

Question: Which “antioxidant activity of astaxanthin stereoisomers” value [1] does the source give for `CC1=C(/C=C/C(C)=C/C=C/C(C)=C/C=C/C=C(C)/C=C/C=C(C)/C=C/C2=C(C)C(=O)[C@@H](O)CC2(C)C)C(C)(C)C[C@@H](O)C1=O` [3′R3′R, 3′S mesoform, 3′R3′R, 3′S astaxanthin] here?
Answer: The value was “no antioxidant activity”.

Question: For `CC(=O)O[C@@]12CO[C@@H]1C[C@H](O)[C@@]1(C)C(=O)[C@H](O)C3=C(C)[C@@H](O)C[C@@](O)([C@@H](OC(=O)c4ccccc4)[C@H]21)C3(C)C` [10-deacetyl baccatin III], which “damage to cultured yeasts compared with ethanol alone” value (Cz30 strain [2]; 0.8 mM with 4% ethanol or 1.2 mM with 6% ethanol versus 4% or 6% ethanol, WT and Cz30 (FIG. 29B)) is on record?
Answer: The value was “higher degree of damage”.

Question: And the “growth in medium containing 10-deacetyl baccatin III” value (Cz30 strain [2]; 0.4-1.2 mM in YPG medium, Cz30 versus WT)?
Answer: Its value is “Cz30 grew better than WT”.

Question: And the “colony growth on YPG plate after pretreatment” value (Cz30 strain [3]; 3.2 mM 10-deacetyl baccatin III in 12% ethanol, 24 hours, then 48 hours on plate, Cz30 versus WT)?
Answer: The value was “Cz30 colonies grew better than WT”.

Question: Which results are given for `CCO` [ethanol]?
Answer: cell growth in presence of ethanol (Cz30 strain [2]; 2, 4, or 6% ethanol in YPG medium, 24 hours): weakly affected; colony growth on YPG plate after treatment (Cz30 strain [3]): Only some Cz30 colonies could grow; cell growth in presence of ethanol (WT strain [4]): significantly repressed

Question: What does the source list for `O=Cc1ccco1` [furfural]?
Answer: furfural treatment tolerated (WT strain [5]): 80 mM; furfural treatment tolerated (Cz30 strain [3]; Cz30 strain, colonies on plate (FIG. 27B)): 100 mM

Question: For `CC(C)CO` [isobutanol], which “colony growth on YPG plate after treatment” value (Cz30 strain [3]) is on record?
Answer: Its value is “Only some Cz30 colonies could grow”.
